{"source": "ChEMBL document CHEMBL3132769", "about": "“Fragment growing to retain or alter the selectivity of anchored kinase hinge-binding fragments” (Medchemcomm, 2014)", "key": {"[1]": {"biological_target": "T1, Aurora kinase A (Homo sapiens) (UniProt O14965)", "T1 sequence (whole entry)": "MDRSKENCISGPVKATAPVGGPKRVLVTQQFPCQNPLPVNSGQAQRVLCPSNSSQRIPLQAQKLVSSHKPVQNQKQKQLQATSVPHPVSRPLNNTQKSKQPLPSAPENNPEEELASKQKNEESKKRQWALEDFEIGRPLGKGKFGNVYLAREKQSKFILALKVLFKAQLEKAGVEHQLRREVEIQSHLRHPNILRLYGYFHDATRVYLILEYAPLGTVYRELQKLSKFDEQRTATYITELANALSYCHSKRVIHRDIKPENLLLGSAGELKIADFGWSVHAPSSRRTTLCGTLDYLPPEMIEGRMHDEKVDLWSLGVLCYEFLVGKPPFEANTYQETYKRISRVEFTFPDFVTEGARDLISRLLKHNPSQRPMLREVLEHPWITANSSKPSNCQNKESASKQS", "experiment": "Inhibition of human full length AurA expressed in baculovirus assessed as substrate phosphorylation using fluorescence-labelled peptides as substrate at 0.06 uM after 90 mins by microfluidic peptide phosphorylation assay"}, "[2]": {"biological_target": "T2, Serine/threonine-protein kinase Chk1 (Homo sapiens) (UniProt O14757)", "T2 sequence (whole entry)": "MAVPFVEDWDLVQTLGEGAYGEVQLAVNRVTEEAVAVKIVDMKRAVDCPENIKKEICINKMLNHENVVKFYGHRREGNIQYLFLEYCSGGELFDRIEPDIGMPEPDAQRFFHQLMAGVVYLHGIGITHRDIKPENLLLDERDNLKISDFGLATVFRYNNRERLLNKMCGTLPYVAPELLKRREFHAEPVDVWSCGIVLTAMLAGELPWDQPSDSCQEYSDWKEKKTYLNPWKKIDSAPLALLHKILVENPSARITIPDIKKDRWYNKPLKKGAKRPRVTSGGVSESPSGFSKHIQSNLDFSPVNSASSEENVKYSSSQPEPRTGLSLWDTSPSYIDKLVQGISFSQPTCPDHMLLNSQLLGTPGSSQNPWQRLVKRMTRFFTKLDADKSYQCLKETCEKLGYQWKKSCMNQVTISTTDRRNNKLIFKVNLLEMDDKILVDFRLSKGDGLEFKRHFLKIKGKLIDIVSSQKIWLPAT", "experiment": "Inhibition of human full length CHK1 expressed in baculovirus assessed as substrate phosphorylation using fluorescence-labelled peptides as substrate at 0.2 uM after 90 mins by microfluidic peptide phosphorylation assay"}, "[3]": {"biological_target": "T3, Testis-specific serine/threonine-protein kinase 1 (Homo sapiens) (UniProt Q9BXA7)", "T3 sequence (whole entry)": "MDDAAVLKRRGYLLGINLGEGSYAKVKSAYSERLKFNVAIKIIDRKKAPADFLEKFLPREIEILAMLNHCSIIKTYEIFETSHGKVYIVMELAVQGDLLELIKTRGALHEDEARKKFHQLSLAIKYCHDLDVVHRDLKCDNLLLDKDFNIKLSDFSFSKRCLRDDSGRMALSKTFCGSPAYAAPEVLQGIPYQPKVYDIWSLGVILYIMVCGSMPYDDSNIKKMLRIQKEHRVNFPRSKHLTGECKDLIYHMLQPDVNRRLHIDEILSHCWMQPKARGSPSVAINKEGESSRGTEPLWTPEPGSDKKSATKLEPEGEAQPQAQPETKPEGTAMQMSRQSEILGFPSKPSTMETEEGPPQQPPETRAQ", "experiment": "Inhibition of human full length TSSK1 expressed in baculovirus assessed as substrate phosphorylation using fluorescence-labelled peptides as substrate at 0.2 uM after 90 mins by microfluidic peptide phosphorylation assay"}, "[4]": {"biological_target": "Serine/threonine-protein kinase pim-1 (Homo sapiens) (UniProt P11309)", "sequence (P11309 whole entry, looked up)": "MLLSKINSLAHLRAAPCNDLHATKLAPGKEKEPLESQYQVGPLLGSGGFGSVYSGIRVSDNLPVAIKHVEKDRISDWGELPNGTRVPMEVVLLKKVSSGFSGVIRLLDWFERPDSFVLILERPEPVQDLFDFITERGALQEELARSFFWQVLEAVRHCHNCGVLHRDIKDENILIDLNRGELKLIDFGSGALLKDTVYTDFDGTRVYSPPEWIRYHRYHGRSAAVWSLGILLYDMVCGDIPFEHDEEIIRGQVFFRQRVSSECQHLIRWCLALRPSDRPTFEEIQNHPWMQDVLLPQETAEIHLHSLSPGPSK", "experiment": "Inhibition of human full length PIM1 expressed in baculovirus assessed as substrate phosphorylation using fluorescence-labelled peptides as substrate at 420 uM after 90 mins by microfluidic peptide phosphorylation assay"}, "[5]": {"biological_target": "T4, Serine/threonine-protein kinase D2 (Homo sapiens) (UniProt Q9BZL6)", "T4 sequence (whole entry)": "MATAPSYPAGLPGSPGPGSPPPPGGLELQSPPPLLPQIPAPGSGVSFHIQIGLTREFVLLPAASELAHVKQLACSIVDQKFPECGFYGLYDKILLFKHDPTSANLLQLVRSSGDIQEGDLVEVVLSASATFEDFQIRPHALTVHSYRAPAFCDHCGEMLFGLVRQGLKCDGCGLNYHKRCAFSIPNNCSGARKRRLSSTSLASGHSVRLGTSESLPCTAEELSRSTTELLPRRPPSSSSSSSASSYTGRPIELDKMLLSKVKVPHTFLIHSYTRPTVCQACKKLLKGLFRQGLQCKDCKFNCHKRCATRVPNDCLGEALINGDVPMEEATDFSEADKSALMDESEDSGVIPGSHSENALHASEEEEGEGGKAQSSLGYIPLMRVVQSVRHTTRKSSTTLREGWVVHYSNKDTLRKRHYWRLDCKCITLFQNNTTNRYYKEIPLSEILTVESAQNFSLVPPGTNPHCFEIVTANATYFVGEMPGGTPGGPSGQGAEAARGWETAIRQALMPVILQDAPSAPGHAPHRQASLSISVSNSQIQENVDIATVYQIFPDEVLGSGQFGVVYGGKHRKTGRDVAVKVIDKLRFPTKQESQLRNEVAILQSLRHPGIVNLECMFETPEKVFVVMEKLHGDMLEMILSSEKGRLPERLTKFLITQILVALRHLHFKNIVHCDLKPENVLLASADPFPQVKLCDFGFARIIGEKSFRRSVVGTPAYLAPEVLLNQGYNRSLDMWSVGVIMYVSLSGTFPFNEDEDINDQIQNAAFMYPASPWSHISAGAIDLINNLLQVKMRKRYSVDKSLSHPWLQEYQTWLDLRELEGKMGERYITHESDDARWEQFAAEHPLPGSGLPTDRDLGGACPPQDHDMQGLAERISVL", "experiment": "Inhibition of human full length PKD2 expressed in baculovirus assessed as substrate phosphorylation using fluorescence-labelled peptides as substrate at 1000 uM after 90 mins by microfluidic peptide phosphorylation assay"}, "[6]": {"biological_target": "Tyrosine-protein kinase Fyn (Homo sapiens) (UniProt P06241)", "sequence (P06241 2-537 limits assumed)": "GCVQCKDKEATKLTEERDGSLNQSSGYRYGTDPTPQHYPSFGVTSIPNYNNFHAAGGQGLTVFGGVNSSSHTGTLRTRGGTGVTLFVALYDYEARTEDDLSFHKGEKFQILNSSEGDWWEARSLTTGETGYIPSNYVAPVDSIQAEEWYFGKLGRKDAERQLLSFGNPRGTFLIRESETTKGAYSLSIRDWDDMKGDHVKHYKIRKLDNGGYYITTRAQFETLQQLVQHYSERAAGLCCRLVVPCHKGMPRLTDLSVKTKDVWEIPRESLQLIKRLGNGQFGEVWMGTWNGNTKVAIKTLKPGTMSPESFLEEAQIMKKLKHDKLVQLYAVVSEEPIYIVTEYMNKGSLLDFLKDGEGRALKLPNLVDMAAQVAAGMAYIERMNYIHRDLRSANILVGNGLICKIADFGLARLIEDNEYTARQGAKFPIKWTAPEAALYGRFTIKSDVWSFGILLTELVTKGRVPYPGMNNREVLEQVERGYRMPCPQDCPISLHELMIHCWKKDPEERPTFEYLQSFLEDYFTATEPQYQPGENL", "experiment": "Inhibition of human full length FYN expressed in baculovirus assessed as substrate phosphorylation using fluorescence-labelled peptides as substrate at […] after 90 mins by microfluidic peptide phosphorylation assay"}, "[7]": {"biological_target": "MAP kinase-activated protein kinase 3 (Homo sapiens) (UniProt Q16644)", "sequence (Q16644 whole entry, looked up)": "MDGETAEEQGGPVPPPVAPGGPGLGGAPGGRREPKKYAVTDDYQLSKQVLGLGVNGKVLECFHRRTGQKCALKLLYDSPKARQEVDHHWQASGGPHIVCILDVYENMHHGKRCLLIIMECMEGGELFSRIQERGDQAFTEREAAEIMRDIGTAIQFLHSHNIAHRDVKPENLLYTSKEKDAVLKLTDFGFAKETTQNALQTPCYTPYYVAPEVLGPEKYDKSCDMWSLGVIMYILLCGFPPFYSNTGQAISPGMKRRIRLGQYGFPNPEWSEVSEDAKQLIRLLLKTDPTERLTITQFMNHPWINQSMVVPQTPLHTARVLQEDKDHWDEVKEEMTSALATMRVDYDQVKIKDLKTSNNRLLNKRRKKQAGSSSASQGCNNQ", "experiment": "Inhibition of human full length MAPKAPK3 expressed in Escherichia coli cell assessed as substrate phosphorylation using fluorescence-labelled peptides as substrate at 8 uM after 90 mins by microfluidic peptide phosphorylation assay"}, "[8]": {"biological_target": "Casein kinase I isoform alpha (Homo sapiens) (UniProt P48729)", "sequence (P48729 2-337 limits assumed)": "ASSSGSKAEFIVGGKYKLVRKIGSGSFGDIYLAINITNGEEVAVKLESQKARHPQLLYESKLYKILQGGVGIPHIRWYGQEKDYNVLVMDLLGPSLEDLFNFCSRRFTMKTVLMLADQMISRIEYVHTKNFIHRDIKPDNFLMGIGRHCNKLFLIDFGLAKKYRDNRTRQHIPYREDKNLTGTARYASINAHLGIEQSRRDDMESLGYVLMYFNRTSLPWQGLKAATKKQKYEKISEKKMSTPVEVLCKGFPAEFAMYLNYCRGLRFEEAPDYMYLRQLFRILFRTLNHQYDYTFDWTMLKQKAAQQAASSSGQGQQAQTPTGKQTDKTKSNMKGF", "experiment": "Inhibition of human full length CSNK1A1 expressed in baculovirus assessed as substrate phosphorylation using fluorescence-labelled peptides as substrate at 0.1 uM after 90 mins by microfluidic peptide phosphorylation assay"}}, "data": [{"smiles": "NC1(Cc2ccc(Cl)cc2)CCN(c2ncnc3[nH]ccc23)CC1", "values": [{"measurement": "inhibition", "setting": "[1]", "value": 7.5, "unit": "%"}]}, {"smiles": "Clc1ccc(C2(c3ccc(-c4ncnc5[nH]cnc45)cc3)CCNCC2)cc1", "values": [{"measurement": "inhibition", "setting": "[2]", "value": 46, "unit": "%"}, {"measurement": "inhibition", "setting": "[3]", "value": 67, "unit": "%"}]}, {"smiles": "c1nc(N2CCOCC2)c2nc[nH]c2n1", "values": [{"measurement": "inhibition", "setting": "[4]", "value": 31.5, "unit": "%"}]}, {"smiles": "c1cnc2[nH]ccc2c1", "values": [{"measurement": "inhibition", "setting": "[5]", "value": 49.5, "unit": "%"}]}, {"smiles": "COC(=O)c1cnc(Nc2cnc(C#N)cn2)cc1NCC1CCNCC1", "values": [{"measurement": "inhibition", "setting": "[6]", "value": 2, "unit": "%"}]}, {"smiles": "NCC1CCN(c2ncnc3[nH]ccc23)CC1", "values": [{"measurement": "inhibition", "setting": "[7]", "value": 81.5, "unit": "%"}]}, {"smiles": "C[C@H](CN(C)C)Oc1nc(Nc2cc3cccc(Cl)c3cn2)cnc1C#N", "values": [{"measurement": "inhibition", "setting": "[8]", "value": 2.5, "unit": "%"}]}]}
